Laboratory results from patent US12419339B2, “Aerosolized formulation” (priority 2018, dated 2025).
Where two headings read alike, the source gives them in different places.

Format: physicochemical
Conditions: prior to aerosolization

SMILES	liquid analysis, content (formulation containing vanillin) [mg/g]	liquid analysis, content (formulation containing 1-menthol (83.1% water, 15.0% 2-hydroxy-propyl-β-cyclodextrin, 0.9% 1-menthol, 1% nicotine))	liquid analysis, content (formulation containing 1-menthol) [mg/g]
COc1cc(C=O)ccc1O [vanillin]	5	–	–
CC1CCC(C(C)C)C(O)C1 (stereo not drawn) [1-menthol]	–	0.8 % (w/w)	8
